From patent publication US6835726B2, “Pyrimidine derivatives” (priority 1998, dated 2004)

test system: recombinant human cytomegalovirus (HCMV); test: microbe, parasite or virus in culture; type: cell-based; conditions: CMV assay, Table 2; read-out: Antiviral Activity
Excerpt: Certain preferred compounds and compositions are capable of specifically inhibiting or suppressing cytomegalovirus infection. For the assessment of activity against human CMV, a method was used which is similar to that described in Kohler, et al., J. Virol. 68:6589-6597 (1994). Briefly, a recombinant human cytomegalovirus (HCMV) was made containing a marker gene (luciferase) under the control of the promoter for the late 28 kDa viral structural phosphoprotein pp28. Human foreskin fibroblast (HFF) cells were infected with the recombinant HCMV virus (MOI 5), placed into 96-well plates, and cultured under standard cell-culture conditions. Compounds that were evaluated for anti-HCMV activity were added to the infected cells 1 hour later. The level of luciferase expression was measured 24 hours after treatment with the test compounds. […] As an additional control, the cytotoxicity of test compounds on untreated HFF cells was also evaluated in cultured cell growth experiments.

| SMILES | IC50 [nM] |
| --- | --- |
| Cc1nc(NCc2ccc(F)cc2C(F)(F)F)nc(-n2ccnc2C)c1[N+](=O)[O-] | 100 to 500 |
| Cc1nc(NCc2cccc(Br)c2)nc(-n2ccnc2C)c1[N+](=O)[O-] | < 100 |
| Cc1nc(NCc2ccc(Cl)c(Cl)c2)nc(-n2ccnc2C)c1[N+](=O)[O-] | 100 to 500 |
| COc1cccc(CNc2nc(C)c([N+](=O)[O-])c(-n3ccnc3C)n2)c1 | 100 to 500 |
| Cc1nc(NCc2ccc(F)c(F)c2)nc(-n2ccnc2C)c1[N+](=O)[O-] | 100 to 500 |
| Cc1cccc(CNc2nc(C)c([N+](=O)[O-])c(-n3ccnc3C)n2)c1 | 100 to 500 |
| Cc1nc(NCc2cc(C(F)(F)F)ccc2F)nc(-n2ccnc2C)c1[N+](=O)[O-] | < 100 |
| CCc1nccn1-c1nc(NCc2ccc(F)cc2Cl)nc(C)c1[N+](=O)[O-] | 100 to 500 |
| CCc1nccn1-c1nc(NCc2ccc(F)cc2C(F)(F)F)nc(C)c1[N+](=O)[O-] | 100 to 500 |
| Cc1nc(NCc2ccccc2Cl)nc(-n2ccnc2C)c1[N+](=O)[O-] | < 100 |
| Cc1nc(NCc2cc(C(F)(F)F)cc(C(F)(F)F)c2)nc(-n2ccnc2C)c1[N+](=O)[O-] | > 500 |
| Cc1nc(NCc2c(F)cccc2Cl)nc(-n2ccnc2C)c1[N+](=O)[O-] | 100 to 500 |
| Cc1nc(NCc2ccc(F)cc2Cl)nc(-n2ccnc2C)c1[N+](=O)[O-] | 100 to 500 |
| Cc1ccccc1CNc1nc(C)c([N+](=O)[O-])c(-n2ccnc2)n1 | > 500 |
| Cc1nc(NCc2ccc(F)c(F)c2F)nc(-n2ccnc2C)c1[N+](=O)[O-] | 100 to 500 |
| CCc1nccn1-c1nc(NCc2c(F)cccc2Cl)nc(C)c1[N+](=O)[O-] | 100 to 500 |
| Cc1nc(NCc2cc(F)c(F)c(F)c2)nc(-n2ccnc2C)c1[N+](=O)[O-] | 100 to 500 |
| Cc1nc(NCc2cccnc2)nc(-n2ccnc2C)c1[N+](=O)[O-] | > 500 |
| Cc1nc(NCc2cccc(F)c2)nc(-n2ccnc2C)c1[N+](=O)[O-] | 100 to 500 |
| COc1ccc(CNc2nc(C)c([N+](=O)[O-])c(-n3ccnc3C)n2)cc1OC | 100 to 500 |

| SMILES | IC50 [nM] |
| --- | --- |
| Cc1nc(NCc2ccc(F)c(C(F)(F)F)c2)nc(-n2ccnc2C)c1[N+](=O)[O-] | < 100 |
| Cc1nc(NCc2cc(Cl)cc(Cl)c2)nc(-n2ccnc2C)c1[N+](=O)[O-] | 100 to 500 |
| Cc1nc(NCc2c(F)ccc(F)c2F)nc(-n2ccnc2C)c1[N+](=O)[O-] | 100 to 500 |
| Cc1nc(NCc2cccc(Cl)c2)nc(-n2ccnc2C)c1[N+](=O)[O-] | < 100 |
| Cc1nc(NCc2ccccn2)nc(-n2ccnc2C)c1[N+](=O)[O-] | 100 to 500 |
| Cc1nc(NCc2ccc(Cl)cc2)nc(-n2ccnc2C)c1[N+](=O)[O-] | 100 to 500 |
| Cc1nc(NCc2ccccc2OC(F)(F)F)nc(-n2ccnc2C)c1[N+](=O)[O-] | 100 to 500 |
| Cc1nc(NCc2cc(F)cc(F)c2)nc(-n2ccnc2C)c1[N+](=O)[O-] | < 100 |
| Cc1nc(NCc2cccc(Cl)c2Cl)nc(-n2ccnc2C)c1[N+](=O)[O-] | 100 to 500 |
| Cc1nc(NCc2cc(Cl)ccc2Cl)nc(-n2ccnc2C)c1[N+](=O)[O-] | < 100 |
| CCC(Nc1nc(C)c([N+](=O)[O-])c(-n2ccnc2C)n1)c1ccccc1 (centres unmarked) | 100 to 500 |
| Cc1nc(NCc2cc(F)ccc2F)nc(-n2ccnc2C)c1[N+](=O)[O-] | 100 to 500 |
| Cc1nc(NCc2cc(F)cc(F)c2F)nc(-n2ccnc2C)c1[N+](=O)[O-] | 100 to 500 |
| Cc1cccc(Cl)c1CNc1nc(C)c([N+](=O)[O-])c(-n2ccnc2C)n1 | 100 to 500 |
| Cc1ccccc1CNc1nc(C)c([N+](=O)[O-])c(-n2ccnc2C)n1 | 100 to 500 |
| Cc1nc(NCc2cc(F)cc(F)c2)nc(-n2ccnc2)c1[N+](=O)[O-] | > 500 |
| Cc1nc(NCc2ccc(F)cc2)nc(-n2ccnc2C)c1[N+](=O)[O-] | 100 to 500 |
| Cc1ccc(CNc2nc(C)c([N+](=O)[O-])c(-n3ccnc3C)n2)cc1 | > 500 |
| Cc1nc(NCc2cccc(C(F)(F)F)c2)nc(-n2ccnc2C)c1[N+](=O)[O-] | < 100 |

same assay, conditions: CMV assay, Table 3; read-out: Antiviral Activity

| SMILES | IC50 [nM] |
| --- | --- |
| COC(C)CCOc1nc(C)c([N+](=O)[O-])c(-n2ccnc2C)n1 (centres unmarked) [3-methoxy-1-butyl/Me/Me] | > 500 |
| COC(C)CCOc1nc(C)c([N+](=O)[O-])c(-n2ccnc2)n1 (centres unmarked) [3-methoxy-1-butyl/H/Me] | > 500 |
| Cc1nc(OCc2ccccc2)nc(-n2ccnc2)c1[N+](=O)[O-] [benzyl/H/Me] | > 500 |
| CCOc1nc(C)c([N+](=O)[O-])c(-n2ccnc2C)n1 [ethyl/Me/Me] | > 500 |
| CCCCOc1nc(C)c([N+](=O)[O-])c(-n2ccnc2)n1 [n-butyl/H/Me] | > 500 |
| Cc1nc(OCCC(C)(C)C)nc(-n2ccnc2)c1[N+](=O)[O-] [3,3-dimethyl-1-butyl/H/Me] | > 500 |
| CCCCOc1nc(C)c([N+](=O)[O-])c(-n2ccnc2C)n1 [n-butyl/Me/Me] | > 500 |
| Cc1nc(OCCc2ccccc2)nc(-n2ccnc2)c1[N+](=O)[O-] [phenethyl/H/Me] | > 500 |
| COc1nc(C)c([N+](=O)[O-])c(-n2ccnc2C)n1 [methyl/Me/Me] | > 500 |
| CCCOc1nc(C)c([N+](=O)[O-])c(-n2ccnc2)n1 [n-propyl/H/Me] | > 500 |
| Cc1nc(OCCC(C)(C)C)nc(-n2ccnc2C)c1[N+](=O)[O-] [3,3-dimethyl-1-butyl/Me/Me] | > 500 |

same assay, conditions: CMV assay, Table 4; read-out: Antiviral Activity

| SMILES | IC50 [nM] |
| --- | --- |
| Cc1nc(NC2CCc3ccccc32)nc(-n2ccnc2)c1[N+](=O)[O-] (centres unmarked) | < 100 |
| Cc1nc(NC2CCc3cc(F)c(F)cc32)nc(-n2ccnc2)c1[N+](=O)[O-] (centres unmarked) | 100 to 500 |
| Cc1nc(NC2CCc3c(F)cccc32)nc(-n2ccnc2)c1[N+](=O)[O-] (centres unmarked) | 100 to 500 |
| COC1c2ccccc2CC1Nc1nc(C)c([N+](=O)[O-])c(-n2ccnc2C)n1 (centres unmarked) | > 500 |
| Cc1nc(NC2Cc3ccccc3C2(C)C)nc(-n2ccnc2C)c1[N+](=O)[O-] (centres unmarked) | 100 to 500 |
| CCc1nccn1-c1nc(NC2CCc3c(F)ccc(F)c32)nc(C)c1[N+](=O)[O-] (centres unmarked) | < 100 |
| CCc1nccn1-c1nc(NC2CCc3c(F)cccc32)nc(C)c1[N+](=O)[O-] (centres unmarked) | 100 to 500 |
| Cc1nc(NC2CCc3c(F)ccc(F)c32)nc(-n2ccnc2C)c1[N+](=O)[O-] (centres unmarked) | < 100 |
| CCc1nccn1-c1nc(NC2CCc3cc(F)c(F)cc32)nc(C)c1[N+](=O)[O-] (centres unmarked) | 100 to 500 |
| Cc1nc(NC2CCc3c(F)ccc(F)c32)nc(-n2ccnc2)c1[N+](=O)[O-] (centres unmarked) | 100 to 500 |
| COC1c2ccccc2CC1Nc1nc(C)c([N+](=O)[O-])c(-n2ccnc2)n1 (centres unmarked) | > 500 |
| Cc1nc(NC2CCc3cc(Br)ccc32)nc(-n2ccnc2C)c1[N+](=O)[O-] (centres unmarked) | 100 to 500 |
| Cc1nc(NC2CCCc3ccccc32)nc(-n2ccnc2C)c1[N+](=O)[O-] (centres unmarked) | 100 to 500 |
| Cc1nc(NC2CCc3cc(F)ccc32)nc(-n2ccnc2)c1[N+](=O)[O-] (centres unmarked) | < 100 |
| Cc1nc(NC2CCc3c(Cl)cccc32)nc(-n2ccnc2C)c1[N+](=O)[O-] (centres unmarked) | > 500 |
| Cc1nc(NC2COc3ccccc32)nc(-n2ccnc2C)c1[N+](=O)[O-] (centres unmarked) | 100 to 500 |
| Cc1nc(NC2Cc3ccccc3C2(C)C)nc(-n2ccnc2)c1[N+](=O)[O-] (centres unmarked) | > 500 |
| Cc1nc(N(C)C2CCc3ccccc32)nc(-n2ccnc2C)c1[N+](=O)[O-] (centres unmarked) | 100 to 500 |
| Cc1nc(NC2CCc3c(F)cccc32)nc(-n2ccnc2C)c1[N+](=O)[O-] (centres unmarked) | 100 to 500 |
| Cc1nc(NC2CCc3cc(F)c(F)cc32)nc(-n2ccnc2C)c1[N+](=O)[O-] (centres unmarked) | 100 to 500 |
| Cc1nc(NC2CCc3cc(F)ccc32)nc(-n2ccnc2C)c1[N+](=O)[O-] (centres unmarked) | 100 to 500 |
| CCc1nccn1-c1nc(NC2CCc3ccccc32)nc(C)c1[N+](=O)[O-] (centres unmarked) | 100 to 500 |
| CCc1nccn1-c1nc(NC2Cc3ccccc3C2)nc(C)c1[N+](=O)[O-] | > 500 |
| Cc1nc(NC2CCc3ccccc32)nc(-n2ccnc2C)c1[N+](=O)[O-] (centres unmarked) | < 100 |
| Cc1nc(NC2CCc3ccc(Cl)cc32)nc(-n2ccnc2C)c1[N+](=O)[O-] (centres unmarked) | 100 to 500 |

same assay, conditions: Human betaherpesvirus 5, HFF, 24 h

| SMILES | IC50 [nM] |
| --- | --- |
| Cc1nc(N2CCN(Cc3ccccc3)CC2)nc(-n2ccnc2C)c1[N+](=O)[O-] [u, 2-(4-benzylpiperazin-1-yl)-4-(2-methylimidazol-1-yl)-6-methyl-5-nitropyrimidine] | 100 |

test system: not given; test: not given; conditions: not given

| melting point [°C] | SMILES |
| --- | --- |
| 164 to 165 | Cc1nc(NC2CCc3c(F)cc(F)cc32)nc(-n2ccnc2C)c1[N+](=O)[O-] (centres unmarked) [2-(4,6-difluoro-1-indanamino)-4-(2-methylimidazol-1-yl)-6-methyl-5-nitropyrimidine] |
| 203 to 204 | Cc1nc(NC2Cc3ccccc3C2)nc(-n2ccnc2C)c1[N+](=O)[O-] [2-(2-indanamino)-4-(2-methylimidazol-1-yl)-6-methyl-5-nitropyrimidine] |
| 123 to 124 | CC[C@H]1CCCC[C@H]1Nc1nc(C)c([N+](=O)[O-])c(-n2ccnc2)n1 (relative stereo) |
| 88 to 89 | CCc1nccn1-c1nc(NC2CCc3c(F)cc(F)cc32)nc(C)c1[N+](=O)[O-] (centres unmarked) [2-(4,6-difluoro-1-indanamino)-4-(2-ethylimidazol-1-yl)-6-methyl-5-nitropyrimidine] |
| 184 to 185 | Cc1nc(NC2Cc3ccccc3C2)nc(-n2ccnc2C)c1[N+](=O)[O-].Cl |
| 177 to 178 | Cc1nc(NC2Cc3ccccc3C2)nc(-n2ccnc2)c1[N+](=O)[O-] [2-(2-indanamino)-4-imidazol-1-yl-6-methyl-5-nitropyriridine] |
| 175 to 176 | Cc1nc(NC2CCc3c(F)cc(F)cc32)nc(-n2ccnc2)c1[N+](=O)[O-] (centres unmarked) [2-(4,6-difluoro-1-indanamino)-4-(imidazol-1-yl)-6-methyl-5-nitropyrimidine] |
